Results from US20070203060A1, “Casein Derived Peptides And Therapeutic Uses Thereof” (priority 2004, published 2007).
“And” between values parts separate entries of the source, which are not always exact repeats. Identical values can stand only once.

Columns and labels:
[1] = tested on: Juvenile (Type I, IDDM) diabetes in NOD mice; assay: Glucosuria in Non-Obese Diabetic (NOD) mice; type: in vivo, mouse; conditions: three injections of 1 mg each, 3 days apart, at 25 weeks
Description: Juvenile (Type I, IDDM) diabetes in Non-Obese Diabetic (NOD) mice:
Peptides derived from natural casein: NOD mice are a commonly used model for research of autoimmune disease and human Juvenile Diabetes. Six week old female NOD mice received either one or two injections per week of 100 μg of peptides derived from natural casein, for a total of 5 or 10 treatments. Control mice received no treatment. The severity of disease was determined according to glucosuria, which was measured using Combi test sticks [Gross, D. J. et al. (1994), Diabetology, 37:1195]. Results were expressed as the percent of glucosuria-free mice in each sample over a 365-day period.
Synthetic peptides derived from casein: In another experiment, 6 week old female NOD mice received two injections per week of 100 μg of Synthetic peptides derived from casein for a total of 10 treatments, or three injections of 1 mg each, 3 days apart, for a total of 3 treatments. Control mice received no treatment. Results were expressed as the number of healthy mice in the various treated groups.

[2] = tested on: glucose metabolism in NOD mice; assay: Intraperitoneal Glucose Tolerance Test (IPGTT) in NOD mice; type: in vivo, mouse; conditions: NOD mice, three injections of 1 mg each, 3 days apart; 25 weeks
Description: Intraperitoneal Glucose Tolerance Test (IPGTT): The glucose tolerance test is the definitive method for investigating glucose metabolism and diabetic tendencies in mammals. Twenty five (25) weeks after receiving Synthetic peptides derived from casein, response to a glucose load was assessed with an intraperitoneal glucose tolerance test. Glucose injection consisted of 1 g/kg body weight. Glycemic values were determined from blood drawn prior to test (0 minutes) and 60 minutes after loading.

[3] = tested on: peripheral white blood cells of myeloablated, bone marrow transplanted mice; assay: Leukocyte reconstitution in irradiated bone marrow transplant recipient mice; type: in vivo, mouse; conditions: BALB/c, 600 cGy, 1 mg per mouse i.p.
[4] = tested on: murine primary bone marrow cells (CFU-GEMM); assay: Multipotential colonies (CFU-GEMM) from murine bone marrow cells, colony and differential counts; type: cell-based, mouse; conditions: 8 days treatment
Description: Proliferation of megakaryocytes in multipotential colonies (CFU-GEMM) from murine Bone Marrow cells: Primary bone marrow cells (1×10^5 per ml) from 8-12 week-old C3H/HeJ mice were grown in serum-free methyl cellulose-IMDM medium for 8-9 days at 5% CO2, 95% air, at 37° C. The medium, appropriate for the growth of multipotential colonies (CFU-GEMM), contained 1% BSA (Sigma), 10^−4 M thioglycerol (Sigma), 2.8×10^−4 M human transferrin (TF, Biological industries, Israel), 10% WEHI-CM as a source of IL-3 and 2 units per ml erythropoietin (rhEPO, R & D Systems, Minneapolis). […] They were picked with a micropipette, cytocentrifuged and stained with May-Grunwald-Giemsa for differential counts. At least 700 cells were counted for each preparation. […]

Sequence | mice in which no glucosuria was detected [1] | blood glucose values in response to a glucose load (IPTG test) [2] | peripheral white blood cell count ([3]; day 10) | peripheral white blood cell count ([3]; day 12) | megakaryocyte formation and development (in words) [4]
RPKHPIKHQGLPQEV [C] | 3 out of 5 | 101 and 113 and 102 | 1.72 ×10^6 cells per ml | 6.54 ×10^6 cells per ml | 
RPKHPIKHQGLPQEVLNEN | two out of 5 | < 120 |  |  | significant increase
